Tests used:
[1] = test system: annual bluegrass (Poa annua L.); assay: Test Example 3: number of emerged ears and leaves, poly-cup, two applications; assay type: in vivo; details: 2nd application after 29 days
Protocol: At the initial stage of the ear emergence of annual bluegrass (Poa annua L.) grown in a poly-cup of 11 cm×11 cm, benzyladenine (Beanine for painting; made by Rikengreen; containing 1% benzyladenine) and ethephon (Ethrel 10 soluble concentrate; Nissan Chemical Industries; containing 10% ethephon) were diluted in a predetermined amount of water, and a spreader (Riken Sprayzer (registered trade mark); made by Rikengreen) was added so as to be 1/1,000-fold concentration; the respectively diluted solutions were applied by atomization at a dose as indicated in Table (scattered solution: 200 mL/m^2), and after a lapse of 29 days, the 2nd application was carried out. Then, the number of emerged ears of annual bluegrass (Poa annua L.) in the cup was counted. Further, the number of leaves [Leaf] of annual bluegrass (Poa annua L.) was counted within the area of 6 cm×6 cm in the cup. The test was carried out serially. […] Dose means the amount at a single application.

[2] = test system: annual bluegrass (Poa annua L.); assay: Test Example 2: count of ear emergence, poly-cup, applications at intervals / alternate application; assay type: in vivo; details: Ethephon 40 mg a.i./m^2 applied Day 10
Protocol: At the initial stage of the ear emergence of annual bluegrass (Poa annua L.) grown in a poly-cup of 11 cm×11 cm, benzyladenine (Beanine for painting; made by Rikengreen; containing 1% benzyladenine) and/or ethephon (Ethrel 10 soluble concentrate; Nissan Chemical Industries; containing 10% ethephon) were diluted in a predetermined amount of water, and a spreader (Riken Sprayzer (registered trade mark); made by Rikengreen) was added so as to be 1/1,000-fold concentration; the respectively diluted solutions were applied by atomization at a dose and intervals as indicated in Table (scattered solution: 200 mL/m^2), and the number of emerged ears of annual bluegrass (Poa annua L.) in the cup was counted through time. The test was carried out serially. […] The symbol “●” in Table indicates the treatment with benzyladenine, “◯” the treatment with ethephon, and “−” untreated. Dose means the amount at a single application.

[3] = test system: annual bluegrass (Poa annua L.); assay: Test Example 1: number of ear emergence, poly-cup, single or mixed application; assay type: in vivo
Protocol: At the initial stage of the ear emergence of annual bluegrass (Poa annua L.) grown in a poly-cup of 11 cm×11 cm, benzyladenine (Beanine for painting; made by Rikengreen; containing 1% benzyladenine) and ethephon (Ethrel 10 soluble concentrate; Nissan Chemical Industries; containing 10% ethephon) respectively as a single active ingredient or a mixture of them were diluted in a predetermined amount of water and applied by atomization so as to be a dose as indicated in Table. The application was carried out using 100 mL/m^2 of the solution to which a spreader (Riken Sprayzer (registered trade mark); made by Rikengreen) was added so as to be 1/1,000 fold. Inspection was made on Days 21, 32 and 45 after treatment with the agents to count the number of ear emergence in the cup. After completion of each inspection, clipping was performed.

[4] = test system: annual bluegrass (Poa annua L.); assay: Test Example 4: field test in bent green turf, emerged ear number; assay type: in vivo; details: applied Day 0 and after 30 days
Protocol: In a bent green turf where annual bluegrasses (Poa annua L.) were grown, a test zone of 1 m×1 m was provided. Benzyladenine (Beanine for painting; made by Rikengreen; containing 1% benzyladenine) and ethephon (Ethrel 10 soluble concentrate; Nissan Chemical Industries; containing 10% ethephon) were diluted in a predetermined amount of water, and a spreader (Riken Sprayzer (registered trade mark); made by Rikengreen) was added so as to be 1/1,000-fold concentration. The respectively diluted solutions were applied to each test zone at the first application (Day 0) at a dose as indicated in Table, and after a lapse of 30 days the second application was carried out. The amount of solution scattered was 100 mL/m^2 both in the first and second applications. The number of ear emergence of annual bluegrass (Poa annua L.) within the area of 10×10 cm was counted at regular intervals at 3 spots per zone. […] Dose means the amount at a single application.

lawn grasses = details: Non-patent document 2; cited from earlier work
[5] = Day 46, Benzyladenine + Ethephon 0 + 20 mg a.i./m^2
[6] = Day 46, Benzyladenine + Ethephon 0 + 40 mg a.i./m^2
[7] = Day 46, Benzyladenine + Ethephon 0 + 80 mg a.i./m^2

SMILES: O=P(O)(O)CCCl [Ethephon, 2-chloroethylphosphonic acid]
- Ear (number of emerged ears in the cup) ([1]; Day 23, Benzyladenine + Ethephon 0 + 20 mg a.i./m^2): 30
- Ear (number of emerged ears in the cup) ([1]; Day 23, Benzyladenine + Ethephon 0 + 40 mg a.i./m^2): 23
- Ear (number of emerged ears in the cup) ([1]; Day 23, Benzyladenine + Ethephon 0 + 80 mg a.i./m^2): 13
- Ear (number of emerged ears in the cup) [1, 5]: 34
- [Leaf] (number of leaves within 6 cm×6 cm) [1, 5]: [90]
- Ear (number of emerged ears in the cup) [1, 6]: 27
- [Leaf] (number of leaves within 6 cm×6 cm) [1, 6]: [88]
- Ear (number of emerged ears in the cup) [1, 7]: 29
- [Leaf] (number of leaves within 6 cm×6 cm) [1, 7]: [79]
- Ear (number of emerged ears in the cup) ([1]; Day 53, Benzyladenine + Ethephon 0 + 20 mg a.i./m^2): 34
- Ear (number of emerged ears in the cup) ([1]; Day 53, Benzyladenine + Ethephon 0 + 40 mg a.i./m^2): 30
- Ear (number of emerged ears in the cup) ([1]; Day 53, Benzyladenine + Ethephon 0 + 80 mg a.i./m^2): 41
- Count of ear emergence ([2]; Day 25): 35
- Count of ear emergence ([2]; Day 33): 27
- number of ear emergence in the cup ([3]; 21 Days after Application, Benzyladenine 0, Ethephon 40 mg a.i./m^2): 43
- number of ear emergence in the cup ([3]; 21 Days after Application, Benzyladenine 0, Ethephon 80 mg a.i./m^2): 47
- number of ear emergence in the cup ([3]; 21 Days after Application, Benzyladenine 0, Ethephon 160 mg a.i./m^2): 28
- number of ear emergence in the cup ([3]; 21 Days after Application, Benzyladenine 0, Ethephon 240 mg a.i./m^2): 29
- number of ear emergence in the cup ([3]; 21 Days after Application, Benzyladenine 0, Ethephon 320 mg a.i./m^2): 19
- number of ear emergence in the cup ([3]; 32 Days after Application, Benzyladenine 0, Ethephon 40 mg a.i./m^2): 38
- number of ear emergence in the cup ([3]; 32 Days after Application, Benzyladenine 0, Ethephon 80 mg a.i./m^2): 41
- number of ear emergence in the cup ([3]; 32 Days after Application, Benzyladenine 0, Ethephon 160 mg a.i./m^2): 32
- number of ear emergence in the cup ([3]; 32 Days after Application, Benzyladenine 0, Ethephon 240 mg a.i./m^2): 19
- number of ear emergence in the cup ([3]; 32 Days after Application, Benzyladenine 0, Ethephon 320 mg a.i./m^2): 15
- number of ear emergence in the cup ([3]; 45 Days after Application, Benzyladenine 0, Ethephon 40 mg a.i./m^2): 54
- number of ear emergence in the cup ([3]; 45 Days after Application, Benzyladenine 0, Ethephon 80 mg a.i./m^2): 51
- number of ear emergence in the cup ([3]; 45 Days after Application, Benzyladenine 0, Ethephon 160 mg a.i./m^2): 38
- number of ear emergence in the cup ([3]; 45 Days after Application, Benzyladenine 0, Ethephon 240 mg a.i./m^2): 39
- number of ear emergence in the cup ([3]; 45 Days after Application, Benzyladenine 0, Ethephon 320 mg a.i./m^2): 36
- Ear (mean emerged ear number within 10×10 cm) ([4]; Day 22, Ethephon 80, Benzyladenine 0 mg a.i./m^2): 53.7
- Ear (mean emerged ear number within 10×10 cm) ([4]; Day 22, Ethephon 160, Benzyladenine 0 mg a.i./m^2): 25.0
- Ear (mean emerged ear number within 10×10 cm) ([4]; Day 41, Ethephon 80, Benzyladenine 0 mg a.i./m^2): 57.3
- Ear (mean emerged ear number within 10×10 cm) ([4]; Day 41, Ethephon 160, Benzyladenine 0 mg a.i./m^2): 24.3
- Ear (mean emerged ear number within 10×10 cm) ([4]; Day 61, Ethephon 80, Benzyladenine 0 mg a.i./m^2): 68.7
- Ear (mean emerged ear number within 10×10 cm) ([4]; Day 61, Ethephon 160, Benzyladenine 0 mg a.i./m^2): 59.0
- extension of stolon and weight in lawn grasses (lawn grasses): promotes the extension of stolon and increase of the weight in lawn grasses
